According to PubChem BioAssay (NCI):
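Exposure lasted 48 hours, with cells grown in 96-well plates and compounds tested at five concentrations. GI50 is the concentration that inhibits growth by half. Definition used: TGI = concentration required for complete inhibition of growth.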

What follows are molecules tested on SK-MEL-28 melanoma (assay: NCI-60 cell line screen, 48 h).
Nc1c(C(=O)Nc2ccncc2)sc2nc3c(cc12)CCCCCCCC3 gave a GI50 of 916 nM and a TGI of 1650 nM. With Cc1ncc(C(=O)Nc2ccc(CN3CCN(C)CC3)c(C(F)(F)F)c2)cc1C#Cc1cnc(N)c2ccncc12 the GI50 was 1270 nM and the TGI was 2820 nM. C#C[C@]1(O)CCC2C3CCc4cc(O)ccc4C3CC[C@@]21C (some centres not stated) showed a GI50 of 5850 nM and a TGI of 19700 nM.

These molecules were tested on SK-MEL-5 melanoma (assay: NCI-60 cell line screen, 48 h).
For CN1C2CCC1CC(=CCOC(c1ccc(F)cc1)c1ccc(F)cc1)C2, the TGI was 23200 nM. Molecule Nc1c(C(=O)Nc2ccncc2)sc2nc3c(cc12)CCCCCCCC3 has a GI50 of 831 nM and a TGI of 1520 nM. For Cc1ncc(C(=O)Nc2ccc(CN3CCN(C)CC3)c(C(F)(F)F)c2)cc1C#Cc1cnc(N)c2ccncc12, the GI50 was 1600 nM and the TGI was 2980 nM. C#C[C@]1(O)CCC2C3CCc4cc(O)ccc4C3CC[C@@]21C (some centres not stated) was tested, and the GI50 was 2240 nM and the TGI was 7600 nM.

Each molecule was assayed on SK-OV-3 ovarian (assay: NCI-60 cell line screen, 48 h).
For CN1C2CCC1CC(=CCOC(c1ccc(F)cc1)c1ccc(F)cc1)C2, the TGI was 31300 nM. Nc1c(C(=O)Nc2ccncc2)sc2nc3c(cc12)CCCCCCCC3 was tested, and the GI50 was 846 nM and the TGI was 1610 nM. In the case of Cc1ncc(C(=O)Nc2ccc(CN3CCN(C)CC3)c(C(F)(F)F)c2)cc1C#Cc1cnc(N)c2ccncc12, the GI50 is reported as 2790 nM and the TGI is reported as 7130 nM. C#C[C@]1(O)CCC2C3CCc4cc(O)ccc4C3CC[C@@]21C (some centres not stated) gave a GI50 of 3450 nM and a TGI of 49600 nM.

The molecules below were run on SN12C renal (assay: NCI-60 cell line screen, 48 h).
For CN1C2CCC1CC(=CCOC(c1ccc(F)cc1)c1ccc(F)cc1)C2, the TGI was 33500 nM. Nc1c(C(=O)Nc2ccncc2)sc2nc3c(cc12)CCCCCCCC3 gave a GI50 of 905 nM and a TGI of 1740 nM. Work on Cc1ncc(C(=O)Nc2ccc(CN3CCN(C)CC3)c(C(F)(F)F)c2)cc1C#Cc1cnc(N)c2ccncc12 yielded a GI50 of 616 nM and a TGI of 3770 nM. C#C[C@]1(O)CCC2C3CCc4cc(O)ccc4C3CC[C@@]21C (some centres not stated) was tested, and the GI50 was 6410 nM and the TGI was 37600 nM.

What follows are molecules tested on SNB-19 CNS (assay: NCI-60 cell line screen, 48 h).
CN1C2CCC1CC(=CCOC(c1ccc(F)cc1)c1ccc(F)cc1)C2 gave a TGI of 37800 nM. Nc1c(C(=O)Nc2ccncc2)sc2nc3c(cc12)CCCCCCCC3 was tested, and the GI50 was 960 nM and the TGI was 1760 nM. Molecule Cc1ncc(C(=O)Nc2ccc(CN3CCN(C)CC3)c(C(F)(F)F)c2)cc1C#Cc1cnc(N)c2ccncc12 has a GI50 of 1800 nM and a TGI of 4620 nM. With C#C[C@]1(O)CCC2C3CCc4cc(O)ccc4C3CC[C@@]21C (some centres not stated) the GI50 was 7590 nM and the TGI was > 100000 nM.

Each molecule was assayed on SNB-75 CNS (assay: NCI-60 cell line screen, 48 h).
CN1C2CCC1CC(=CCOC(c1ccc(F)cc1)c1ccc(F)cc1)C2 was tested, and the TGI was 27100 nM. In the case of Nc1c(C(=O)Nc2ccncc2)sc2nc3c(cc12)CCCCCCCC3, the GI50 is reported as 819 nM and the TGI is reported as 1530 nM. For Cc1ncc(C(=O)Nc2ccc(CN3CCN(C)CC3)c(C(F)(F)F)c2)cc1C#Cc1cnc(N)c2ccncc12, the GI50 was 854 nM and the TGI was 2210 nM. In the case of C#C[C@]1(O)CCC2C3CCc4cc(O)ccc4C3CC[C@@]21C (some centres not stated), the GI50 is reported as 1930 nM and the TGI is reported as 6760 nM.

What follows are molecules tested on SR leukemia (assay: NCI-60 cell line screen, 48 h).
CN1C2CCC1CC(=CCOC(c1ccc(F)cc1)c1ccc(F)cc1)C2 was tested, and the TGI was 37300 nM. Nc1c(C(=O)Nc2ccncc2)sc2nc3c(cc12)CCCCCCCC3 was tested, and the GI50 was 1620 nM and the TGI was 50000 nM. Molecule Cc1ncc(C(=O)Nc2ccc(CN3CCN(C)CC3)c(C(F)(F)F)c2)cc1C#Cc1cnc(N)c2ccncc12 has a GI50 of 2330 nM and a TGI of 29800 nM. Work on C#C[C@]1(O)CCC2C3CCc4cc(O)ccc4C3CC[C@@]21C (some centres not stated) yielded a GI50 of 1240 nM and a TGI of 87400 nM.

What follows are molecules tested on SW-620 colon (assay: NCI-60 cell line screen, 48 h).
In the case of CN1C2CCC1CC(=CCOC(c1ccc(F)cc1)c1ccc(F)cc1)C2, the TGI is reported as > 100000 nM. With Nc1c(C(=O)Nc2ccncc2)sc2nc3c(cc12)CCCCCCCC3 the GI50 was 957 nM and the TGI was 1880 nM. Work on Cc1ncc(C(=O)Nc2ccc(CN3CCN(C)CC3)c(C(F)(F)F)c2)cc1C#Cc1cnc(N)c2ccncc12 yielded a GI50 of 1490 nM and a TGI of 3300 nM. For C#C[C@]1(O)CCC2C3CCc4cc(O)ccc4C3CC[C@@]21C (some centres not stated), the GI50 was 3800 nM and the TGI was 23600 nM.

What follows are molecules tested on T-47D breast (assay: NCI-60 cell line screen, 48 h).
Molecule CN1C2CCC1CC(=CCOC(c1ccc(F)cc1)c1ccc(F)cc1)C2 has a TGI of 35100 nM. Molecule Nc1c(C(=O)Nc2ccncc2)sc2nc3c(cc12)CCCCCCCC3 has a GI50 of 940 nM and a TGI of 2210 nM. Work on Cc1ncc(C(=O)Nc2ccc(CN3CCN(C)CC3)c(C(F)(F)F)c2)cc1C#Cc1cnc(N)c2ccncc12 yielded a GI50 of 1910 nM and a TGI of 5880 nM. C#C[C@]1(O)CCC2C3CCc4cc(O)ccc4C3CC[C@@]21C (some centres not stated) was tested, and the GI50 was 6910 nM and the TGI was 24400 nM.

What follows are molecules tested on TK-10 renal (assay: NCI-60 cell line screen, 48 h).
CN1C2CCC1CC(=CCOC(c1ccc(F)cc1)c1ccc(F)cc1)C2 showed a TGI of 28500 nM. In the case of Nc1c(C(=O)Nc2ccncc2)sc2nc3c(cc12)CCCCCCCC3, the GI50 is reported as 1170 nM and the TGI is reported as 1980 nM. Molecule Cc1ncc(C(=O)Nc2ccc(CN3CCN(C)CC3)c(C(F)(F)F)c2)cc1C#Cc1cnc(N)c2ccncc12 has a GI50 of 1600 nM and a TGI of 4190 nM. C#C[C@]1(O)CCC2C3CCc4cc(O)ccc4C3CC[C@@]21C (some centres not stated) was tested, and the GI50 was 10300 nM and the TGI was > 100000 nM.

The molecules below were run on U251 CNS (assay: NCI-60 cell line screen, 48 h).
Molecule CN1C2CCC1CC(=CCOC(c1ccc(F)cc1)c1ccc(F)cc1)C2 has a TGI of 33200 nM. Nc1c(C(=O)Nc2ccncc2)sc2nc3c(cc12)CCCCCCCC3 was tested, and the GI50 was 933 nM and the TGI was 1730 nM. Cc1ncc(C(=O)Nc2ccc(CN3CCN(C)CC3)c(C(F)(F)F)c2)cc1C#Cc1cnc(N)c2ccncc12 was tested, and the GI50 was 1550 nM and the TGI was 3350 nM. Work on C#C[C@]1(O)CCC2C3CCc4cc(O)ccc4C3CC[C@@]21C (some centres not stated) yielded a GI50 of 4090 nM and a TGI of 17500 nM.

What follows are molecules tested on UACC-257 melanoma (assay: NCI-60 cell line screen, 48 h).
For CN1C2CCC1CC(=CCOC(c1ccc(F)cc1)c1ccc(F)cc1)C2, the TGI was 31700 nM. Nc1c(C(=O)Nc2ccncc2)sc2nc3c(cc12)CCCCCCCC3 gave a GI50 of 948 nM and a TGI of 1740 nM. With Cc1ncc(C(=O)Nc2ccc(CN3CCN(C)CC3)c(C(F)(F)F)c2)cc1C#Cc1cnc(N)c2ccncc12 the GI50 was 1640 nM and the TGI was 3330 nM. In the case of C#C[C@]1(O)CCC2C3CCc4cc(O)ccc4C3CC[C@@]21C (some centres not stated), the GI50 is reported as 10400 nM and the TGI is reported as 41400 nM.

These molecules were tested on UACC-62 melanoma (assay: NCI-60 cell line screen, 48 h).
With CN1C2CCC1CC(=CCOC(c1ccc(F)cc1)c1ccc(F)cc1)C2 the TGI was 29500 nM. Nc1c(C(=O)Nc2ccncc2)sc2nc3c(cc12)CCCCCCCC3 gave a GI50 of 885 nM and a TGI of 1670 nM. In the case of Cc1ncc(C(=O)Nc2ccc(CN3CCN(C)CC3)c(C(F)(F)F)c2)cc1C#Cc1cnc(N)c2ccncc12, the GI50 is reported as 1400 nM and the TGI is reported as 2900 nM. Work on C#C[C@]1(O)CCC2C3CCc4cc(O)ccc4C3CC[C@@]21C (some centres not stated) yielded a GI50 of 4120 nM and a TGI of 22800 nM.

Each molecule was assayed on UO-31 renal (assay: NCI-60 cell line screen, 48 h).
CN1C2CCC1CC(=CCOC(c1ccc(F)cc1)c1ccc(F)cc1)C2 gave a TGI of 21800 nM. In the case of Nc1c(C(=O)Nc2ccncc2)sc2nc3c(cc12)CCCCCCCC3, the GI50 is reported as 772 nM and the TGI is reported as 1490 nM. Cc1ncc(C(=O)Nc2ccc(CN3CCN(C)CC3)c(C(F)(F)F)c2)cc1C#Cc1cnc(N)c2ccncc12 showed a GI50 of 457 nM and a TGI of 2270 nM. Work on C#C[C@]1(O)CCC2C3CCc4cc(O)ccc4C3CC[C@@]21C (some centres not stated) yielded a GI50 of 6810 nM and a TGI of 28800 nM.
